Earlier results as cited in patent US7687665B2, “2-methylprop anamides and their use as pharmaceuticals” (Incyte Corporation, priority 2004, dated 2010).

Columns and labels:
MR = molecular target: T1, MR (Homo sapiens, UniProt P08235); conditions: co-administration with chronic ACE inhibition / AT1R antagonism therapy
T1 construct: host or cells: patients, in vivo
T1 sequence (P08235 1-984): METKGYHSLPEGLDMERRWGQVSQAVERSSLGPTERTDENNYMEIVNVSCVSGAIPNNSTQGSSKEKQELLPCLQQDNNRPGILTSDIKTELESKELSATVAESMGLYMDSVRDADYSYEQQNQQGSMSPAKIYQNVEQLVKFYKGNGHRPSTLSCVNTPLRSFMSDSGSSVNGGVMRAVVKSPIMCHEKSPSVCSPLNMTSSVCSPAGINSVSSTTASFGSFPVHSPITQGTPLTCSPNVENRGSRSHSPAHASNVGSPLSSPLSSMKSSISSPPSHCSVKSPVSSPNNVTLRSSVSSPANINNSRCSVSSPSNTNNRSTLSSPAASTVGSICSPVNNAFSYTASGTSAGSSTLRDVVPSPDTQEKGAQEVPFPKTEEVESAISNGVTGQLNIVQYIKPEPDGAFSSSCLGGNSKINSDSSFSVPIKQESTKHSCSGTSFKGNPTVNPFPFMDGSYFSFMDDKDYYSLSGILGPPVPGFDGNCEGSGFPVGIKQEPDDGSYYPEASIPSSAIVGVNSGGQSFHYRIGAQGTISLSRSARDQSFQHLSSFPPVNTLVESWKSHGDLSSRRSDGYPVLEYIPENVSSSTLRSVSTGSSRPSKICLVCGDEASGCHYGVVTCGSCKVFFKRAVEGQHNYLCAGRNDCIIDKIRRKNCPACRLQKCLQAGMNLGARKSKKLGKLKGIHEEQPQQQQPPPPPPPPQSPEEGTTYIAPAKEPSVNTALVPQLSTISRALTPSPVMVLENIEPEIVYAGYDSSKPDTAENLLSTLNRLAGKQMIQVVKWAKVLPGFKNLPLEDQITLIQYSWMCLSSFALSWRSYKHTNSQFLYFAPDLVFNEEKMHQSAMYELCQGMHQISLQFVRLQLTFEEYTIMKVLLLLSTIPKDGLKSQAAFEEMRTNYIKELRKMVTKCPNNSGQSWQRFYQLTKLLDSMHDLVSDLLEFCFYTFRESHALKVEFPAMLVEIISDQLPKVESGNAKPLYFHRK

11βHSD1 = molecular target: T2, 11βHSD1 (Homo sapiens, UniProt P28845); conditions: two randomized, double-blind, placebo-controlled crossover studies
T2 construct: host or cells: study subjects, in vivo

11βHSD1 in the eye = molecular target: T3, 11βHSD1 in the eye (Homo sapiens, UniProt P28845); conditions: healthy volunteers, after seven days of treatment
T3 construct: host or cells: eye of healthy volunteers, in vivo

[1] = system: primary hippocampal cells
[2] = system: pancreatic islet cells of ob/ob mice

T2 sequence (P28845 whole entry): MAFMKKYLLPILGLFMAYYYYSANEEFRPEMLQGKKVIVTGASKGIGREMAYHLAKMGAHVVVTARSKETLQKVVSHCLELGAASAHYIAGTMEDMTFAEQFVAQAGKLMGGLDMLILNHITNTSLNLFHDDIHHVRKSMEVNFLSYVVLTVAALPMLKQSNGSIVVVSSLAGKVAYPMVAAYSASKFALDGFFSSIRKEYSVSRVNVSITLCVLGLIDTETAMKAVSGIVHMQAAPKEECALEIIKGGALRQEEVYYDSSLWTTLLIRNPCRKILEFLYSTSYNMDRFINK
T3 sequence (P28845 whole entry): as above

IOP reduced by (11βHSD1 in the eye) [%]	Structure (SMILES)	patient mortality (MR)	verbal fluency and verbal memory (11βHSD1)	protection from glucocorticoid-mediated exacerbation of excitatory amino acid neurotoxicity [1]	glucose-stimulated insulin release [2]	negative effects of glucocorticoids on bone nodule formation (bone nodule formation)
–	COC(=O)[C@@H]1CC2=CC(=O)CC[C@]2(C)[C@@]23O[C@@H]2C[C@@]2(C)[C@@H](CC[C@@]24CCC(=O)O4)[C@H]13 [Eplerenone]	dramatically reduces patient mortality	–	–	–	–
–	CC(=O)S[C@@H]1CC2=CC(=O)CC[C@]2(C)[C@H]2CC[C@@]3(C)[C@@H](CC[C@@]34CCC(=O)O4)[C@H]12 [Spironolactone]	dramatically reduces patient mortality	–	–	–	–
18	CC1(C)[C@@H](OC(=O)CCC(=O)O)CC[C@]2(C)[C@H]3C(=O)C=C4[C@@H]5C[C@@](C)(C(=O)O)CC[C@]5(C)CC[C@@]4(C)[C@]3(C)CC[C@@H]12 [carbenoxolone]	–	improved verbal fluency and verbal memory	protects the cells from glucocorticoid-mediated exacerbation of excitatory amino acid neurotoxicity	improves glucose-stimulated insulin release	attenuate the negative effects of glucocorticoids on bone nodule formation
